Data taken from PMC6424980, “Distinct G protein-coupled receptor phosphorylation motifs modulate arrestin affinity and activation and global conformation” (Nature Communications, 2019).
Entries after “also recorded” stand apart in the source; their conditions may differ.

How the values were obtained:
arrestin-2 = test: Fluorescence anisotropy binding of fluorescein-labelled peptides to arrestin-2; parameters: species or system human
Text: (§1) Synthesized cDNAs of bovine arrestin-1, human arrestin-2 and human arrestin-3 were ordered from Genewiz, amplified by PCR and cloned (Supplementary Information Table 5) into the pET-15b vector (Novagen), using the Gibson Assembly protocol. The constructs contained an N-terminal hexa histidine tag linked by a linker that contained a Tobacco Etch Virus cleavage site (TEV; […]). PCR was used to introduce the monomerizing arrestin-1 mutations (F85A, F197A)[58]. Note that this mutant was employed for fluorescence anisotropy, trypsin digestion, and NMR experiments. Wild-type arrestin-2 and -3 were used for fluorescence anisotropy and trypsin digestion experiments. […] The arrestin-1 in this construct had the wild-type sequence. Note that this construct differs slightly from that previously published[59],[60] and was optimized for purification. We verified the functionality of this fusion construct using the standard centrifugal pull-down assay using phosphorylated rhodopsin in native ROS membranes.
0.1–0.2 mg of lyophilized peptide was dissolved in 50 µl of 50 mM phosphate-buffered saline (PBS) buffer at pH 7.0, and then two molar equivalents of fluorescein-5-maleimide dye stock dissolved in dimethylsulfoxid was added. The reaction was carried out at RT in the dark. […] It was dissolved in 50 µl of 20 mM Bis-Tris propane pH 7.0 and 150 mM NaCl and its concentration was determined by absorbance. […]

arrestin-1 (F85A, F197A) = test: Limited trypsin digestion of arrestin-1 in presence of peptide; assay type: biochemical, bovine; conditions: arrestin:peptide 1:1.2, 35 °C, SDS PAGE
Text: as §1
Arrestin (60 µg) was mixed at a 1 to 1.2 molar ratio with peptide and preincubated at RT for 5 min before 1 μl of 0.15 mg/ml trypsin stock was added. The enzymatic digestion was carried out at 35 °C (20 mM Bis-Tris propane pH 7.0, 150 mM NaCl, 10 mM 2‑Mercaptoethanol and 2 mM EDTA). At certain time points (5, 15, 30, 60, 90 min), 5 μl aliquots were quenched with heat incubation in the presence of 20 μl SDS loading buffer (95 °C, 5 min) and then subjected to SDS PAGE. Bands were visualized with InstantBlue (Expedeon).

[1] = tested on: arrestin-1 mutants I72B and F197NBD with nonphosphorylated light-activated rhodopsin in ROS membranes; test: Ternary complex formation (site-directed fluorescence and centrifugal pull-down); assay type: biochemical, bovine; conditions: 10 µM rhodopsin in ROS, 1 µM arrestin-1 I72B or F197NBD, 100 µM peptide, pH 7
Text: Recombinant bovine arrestin-1 cloned into the pET15b vector was expressed and purified as described. The basic construct was a modified wild-type sequence that contained no native cysteines (C63A, C128S and C143A) nor tryptophans (W194F). Single cysteine residues were introduced by PCR at sites 72 or 197 as previously described. The I72C mutant was labeled with monobromobimane (Thermo Fisher) and is referred to as I72B. The F197C mutant was labeled with N,N′-Dimethyl-N-(Iodoacetyl)-N′-(7-Nitrobenz-2-Oxa-1,3-Diazol-4-yl)Ethylenediamine (IANBD amide, Thermo Fisher) and is referred to as F197NBD. Labeling was carried out as previously described[43],[61]. Both labeled mutants were assessed to be functionally similar to wild-type arrestin-1 using the Extra Meta II assay, which determines the ability of arrestin-1 to bind and stabilize the active Meta II form of rhodopsin[64].
Under dim-red light, samples were prepared that contained nonphosphorylated rhodopsin (10 µM) in ROS membranes, 1 µM arrestin-1 I72B or F197NBD, ±100 µM peptide in 50 mM HEPES, 130 mM NaCl, pH 7 (150 or 200 µl sample volume). One hundred microliters of the sample was used for fluorescence measurements, and the remainder was used for the centrifugal pull-down assay (50 µl per assay). Steady-state fluorescence measurements were performed using a SPEX Fluorolog (1680) instrument in front-face mode. Bimane fluorescence was recorded using an excitation wavelength of 400 nm and emission 424–600 nm, and NBD fluorescence was recorded using an excitation wavelength of 500 nm and emission 524–660 (2 nm step size, 0.5 s integration per point). Excitation slits were narrowed to 0.1−0.2 nm to minimize light-activation of rhodopsin, and emission slits were set at 4 nm. Pull-down analysis was performed by centrifuging samples at 16,000 × g for 10 min at 20 °C. Selected samples were light activated (>495 nm) for 15 s prior to centrifugation (appr. 60 s delay time). Following centrifugation, the supernatants were removed, and the pellets were solubilized in loading buffer containing 2% SDS and subjected to SDS PAGE. Bands were visualized using Coomassie Brilliant Blue.

CDDEASTTVSKTETSQVAPA [5P, multiply phosphorylated rhodopsin C-terminus peptide lacking key site pS343]
binding to arrestin-2 (in words) (arrestin-2): bound well
limited trypsin digest pattern of arrestin-1 (conformational change, C-tail displacement) (arrestin-1 (F85A, F197A)): inability to induce conformational changes
ternary complex formation (arrestin-1, nonphosphorylated rhodopsin, peptide) [1]: significant reduction of ternary complex formation; also recorded: could still stimulate ternary complex formation
